ChEMBL document CHEMBL4842388, “Discovery of Potent, Selective, and Brain-Penetrant Apoptosis Signal-Regulating Kinase 1 (ASK1) Inhibitors that Modulate Brain Inflammation In Vivo” (J Med Chem, 2021)
≈ marks a conversion by molar mass, not a printed value. Calls of active or inactive are those of the source. The rule behind the calls is not given here.

Key:
[1] = Microsomal stability in human liver microsomes; type: ADME, Microsome; conditions: read-out: Stabilty
[2] = Solubility of compound at pH 6.8; type: physicochemical; conditions: buffer
[3] = molecular target: T1, Mitogen-activated protein kinase kinase kinase 5 (Homo sapiens, UniProt Q99683); assay: Inhibition of ASK1 (unknown origin) using myelin basic protein as substrate preincubated for 20 mins followed by 33P-ATP addition and measured after 2 hrs
T1 sequence (Q99683 whole entry): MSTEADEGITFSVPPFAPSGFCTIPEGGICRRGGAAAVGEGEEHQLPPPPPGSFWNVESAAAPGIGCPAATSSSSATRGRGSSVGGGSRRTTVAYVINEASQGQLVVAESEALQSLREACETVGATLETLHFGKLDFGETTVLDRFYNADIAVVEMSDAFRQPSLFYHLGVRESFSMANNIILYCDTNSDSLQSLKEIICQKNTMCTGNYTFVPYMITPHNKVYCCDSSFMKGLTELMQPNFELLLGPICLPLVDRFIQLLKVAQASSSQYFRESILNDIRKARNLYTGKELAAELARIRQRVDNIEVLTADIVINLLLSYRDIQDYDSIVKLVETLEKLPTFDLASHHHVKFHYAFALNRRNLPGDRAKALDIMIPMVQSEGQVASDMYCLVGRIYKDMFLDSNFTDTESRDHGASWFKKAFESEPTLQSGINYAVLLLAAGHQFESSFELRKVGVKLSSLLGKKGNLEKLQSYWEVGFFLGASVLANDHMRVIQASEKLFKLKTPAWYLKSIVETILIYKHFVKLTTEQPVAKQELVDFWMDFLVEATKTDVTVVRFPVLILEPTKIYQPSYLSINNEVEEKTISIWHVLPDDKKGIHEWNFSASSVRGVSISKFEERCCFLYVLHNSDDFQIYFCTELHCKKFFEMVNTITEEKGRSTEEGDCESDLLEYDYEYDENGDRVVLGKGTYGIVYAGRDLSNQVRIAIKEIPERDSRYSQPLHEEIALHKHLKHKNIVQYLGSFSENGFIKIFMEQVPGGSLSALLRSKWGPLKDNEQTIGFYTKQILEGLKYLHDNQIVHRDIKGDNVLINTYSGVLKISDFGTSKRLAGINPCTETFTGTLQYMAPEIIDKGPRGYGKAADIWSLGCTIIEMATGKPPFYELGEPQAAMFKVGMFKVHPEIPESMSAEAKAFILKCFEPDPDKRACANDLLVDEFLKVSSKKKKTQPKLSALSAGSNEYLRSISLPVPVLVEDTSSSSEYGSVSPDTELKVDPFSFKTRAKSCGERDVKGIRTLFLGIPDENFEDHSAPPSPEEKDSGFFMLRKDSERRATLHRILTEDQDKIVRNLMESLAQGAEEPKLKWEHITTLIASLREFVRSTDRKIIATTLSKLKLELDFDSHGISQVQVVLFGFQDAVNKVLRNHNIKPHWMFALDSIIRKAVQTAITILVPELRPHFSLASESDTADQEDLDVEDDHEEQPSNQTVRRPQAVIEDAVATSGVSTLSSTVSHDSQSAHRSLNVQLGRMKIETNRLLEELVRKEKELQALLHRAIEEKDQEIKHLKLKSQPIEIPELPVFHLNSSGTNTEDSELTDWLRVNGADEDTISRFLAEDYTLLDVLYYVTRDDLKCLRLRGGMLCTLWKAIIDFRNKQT

[4] = molecular target: T1, Mitogen-activated protein kinase kinase kinase 5; assay: Inhibition of full-length human ASK1 expressed in HEK293T cells assessed as reduction in autophosphorylation of ASK1 at […] residue incubated for 1 hr; type: cell-based
[5] = Apparent permeability from apical to basolateral side in MDCK- MDR1 cells at 1 uM after 2 hrs; type: ADME, cell-based, Canis lupus familiaris; conditions: dog
[6] = Efflux ratio of apparent permeability across basolateral to apical side over apical to basolateral side in MDCK-MDR1 cells at 1 uM after 2 hrs; type: ADME, cell-based, Canis lupus familiaris; conditions: dog
[7] = Microsomal stability in rat liver microsomes; type: ADME, Microsome; conditions: read-out: Stabilty
[8] = molecular target: 5-hydroxytryptamine receptor 2B (Homo sapiens, UniProt P41595); assay: Inhibition of 5HT2B receptor (unknown origin)
Adenosine receptor A2a = Adenosine receptor A2a (Homo sapiens, UniProt P29274); assay: Inhibition of A2A receptor (unknown origin)
[9] = molecular target: T2, Mitogen-activated protein kinase kinase kinase 5 (Mus musculus) (UniProt O35099); assay: In vivo inhibition of ASK1 in Tg4510 mouse model of Alzheimer's disease assessed as reduction in KC/GRO levels in cortex at 3 to 30 mg/kg, po BID for 3 days measured after 4 hrs post last dose by ELISA; type: functional, organism-based; conditions: dose 3-30 mg/kg, time 3.0 day
T2 sequence (whole entry): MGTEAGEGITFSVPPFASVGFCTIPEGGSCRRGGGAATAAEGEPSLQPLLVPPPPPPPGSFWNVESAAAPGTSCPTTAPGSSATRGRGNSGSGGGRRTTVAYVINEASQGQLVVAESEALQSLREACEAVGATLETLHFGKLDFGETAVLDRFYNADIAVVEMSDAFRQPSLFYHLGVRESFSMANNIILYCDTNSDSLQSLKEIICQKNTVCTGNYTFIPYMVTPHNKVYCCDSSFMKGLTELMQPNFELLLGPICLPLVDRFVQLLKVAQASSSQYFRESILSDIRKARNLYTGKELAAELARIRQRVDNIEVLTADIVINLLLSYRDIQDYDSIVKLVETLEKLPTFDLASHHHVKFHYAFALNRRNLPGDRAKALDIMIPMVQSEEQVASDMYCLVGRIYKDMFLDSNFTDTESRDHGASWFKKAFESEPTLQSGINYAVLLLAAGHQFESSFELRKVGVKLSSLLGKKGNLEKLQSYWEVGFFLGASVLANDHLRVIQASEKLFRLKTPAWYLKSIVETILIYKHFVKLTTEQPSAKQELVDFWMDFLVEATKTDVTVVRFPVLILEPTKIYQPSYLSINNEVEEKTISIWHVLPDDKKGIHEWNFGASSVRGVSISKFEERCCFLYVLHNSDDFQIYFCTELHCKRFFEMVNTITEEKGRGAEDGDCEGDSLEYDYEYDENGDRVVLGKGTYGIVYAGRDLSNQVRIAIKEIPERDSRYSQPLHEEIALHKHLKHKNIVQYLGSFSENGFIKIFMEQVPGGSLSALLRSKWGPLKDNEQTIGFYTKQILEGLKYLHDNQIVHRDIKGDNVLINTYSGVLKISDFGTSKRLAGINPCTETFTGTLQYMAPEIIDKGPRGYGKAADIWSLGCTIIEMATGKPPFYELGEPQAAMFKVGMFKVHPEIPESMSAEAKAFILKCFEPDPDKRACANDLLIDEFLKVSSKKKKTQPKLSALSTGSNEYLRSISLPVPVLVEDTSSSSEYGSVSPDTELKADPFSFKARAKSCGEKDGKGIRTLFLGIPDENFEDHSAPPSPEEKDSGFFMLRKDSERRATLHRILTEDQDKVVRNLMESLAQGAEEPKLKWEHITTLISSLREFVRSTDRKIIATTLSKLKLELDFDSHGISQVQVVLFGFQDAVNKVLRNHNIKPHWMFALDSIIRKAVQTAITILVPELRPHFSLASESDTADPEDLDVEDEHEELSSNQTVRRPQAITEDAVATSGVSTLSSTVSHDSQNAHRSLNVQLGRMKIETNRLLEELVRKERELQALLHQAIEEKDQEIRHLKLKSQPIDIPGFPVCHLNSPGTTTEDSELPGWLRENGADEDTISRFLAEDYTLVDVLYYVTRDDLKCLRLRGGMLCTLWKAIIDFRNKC

[10] = molecular target: T2, Mitogen-activated protein kinase kinase kinase 5 (Mus musculus); assay: In vivo inhibition of ASK1 in Tg4510 mouse model of Alzheimer's disease assessed as reduction in IL-1beta levels in cortex at 3 to 30 mg/kg, po BID for 3 days measured after 4 hrs post last dose by ELISA; type: functional, organism-based; conditions: dose 3-30 mg/kg, time 3.0 day
[11] = molecular target: T2, Mitogen-activated protein kinase kinase kinase 5 (Mus musculus); assay: In vivo inhibition of ASK1 in Tg4510 mouse model of Alzheimer's disease assessed as reduction in MCP-1 levels in cortex at 3 to 30 mg/kg, po BID for 3 days measured after 4 hrs post last dose by ELISA; type: functional, organism-based; conditions: dose 3-30 mg/kg, time 3.0 day

Sequence of 5-hydroxytryptamine receptor 2B (P41595 whole entry): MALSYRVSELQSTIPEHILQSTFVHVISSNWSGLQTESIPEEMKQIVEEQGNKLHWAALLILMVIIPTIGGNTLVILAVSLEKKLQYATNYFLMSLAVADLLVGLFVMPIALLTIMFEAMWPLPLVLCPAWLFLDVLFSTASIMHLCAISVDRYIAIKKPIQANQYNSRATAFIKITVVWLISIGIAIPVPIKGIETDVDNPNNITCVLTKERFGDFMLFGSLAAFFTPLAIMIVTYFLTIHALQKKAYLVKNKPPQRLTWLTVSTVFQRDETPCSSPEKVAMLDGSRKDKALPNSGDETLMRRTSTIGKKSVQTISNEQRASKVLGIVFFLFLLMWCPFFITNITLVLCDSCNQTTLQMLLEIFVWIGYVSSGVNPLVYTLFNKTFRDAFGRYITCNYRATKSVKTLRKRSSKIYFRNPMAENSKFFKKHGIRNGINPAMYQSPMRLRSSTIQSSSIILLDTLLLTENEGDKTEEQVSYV
Sequence of Adenosine receptor A2a (P29274 whole entry): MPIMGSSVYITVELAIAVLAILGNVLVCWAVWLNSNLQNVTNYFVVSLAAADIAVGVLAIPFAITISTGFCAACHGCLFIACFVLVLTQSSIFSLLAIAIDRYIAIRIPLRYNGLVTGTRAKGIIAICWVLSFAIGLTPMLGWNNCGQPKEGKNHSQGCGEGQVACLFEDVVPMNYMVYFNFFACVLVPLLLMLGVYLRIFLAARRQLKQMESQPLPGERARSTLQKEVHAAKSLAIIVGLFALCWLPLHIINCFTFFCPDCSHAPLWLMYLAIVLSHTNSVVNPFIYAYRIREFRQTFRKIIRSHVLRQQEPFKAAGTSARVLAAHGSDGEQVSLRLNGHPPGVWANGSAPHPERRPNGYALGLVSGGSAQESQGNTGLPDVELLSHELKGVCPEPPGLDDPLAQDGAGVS

Row | Compound | CLint scaled [1] | solubility [2] | IC50 [3] | IC50 [4] | Papp A→B at 2 h, 1 µM [5] | efflux ratio at 2 h, 1 µM [6] | CLint scaled [7] | IC50 [8] | IC50 (Adenosine receptor A2a) | inhibition [9] | inhibition [10] | inhibition [11]
1 | COc1nn(C)cc1C(=O)Nc1cccc(-c2nncn2[C@@H]2CCOC2)n1 | 6 mL/min/kg | 43 µg/mL (≈ 116 µM) | 5 nM | 129 nM | 0.4 ×10⁻⁶ cm/s | 47 | 27 mL/min/kg | – | – | – | – | –
2 | COc1nn(C)cc1C(=O)Nc1cccc(-c2nncn2[C@H]2CCOC2)n1 | 20 mL/min/kg | 43 µg/mL (≈ 116 µM) | 8 nM | 144 nM | 0.5 ×10⁻⁶ cm/s | 72 | 20 mL/min/kg | – | – | – | – | –
3 | COc1ncc(F)cc1C(=O)Nc1cccc(-c2nncn2[C@@H](C)C(F)(F)F)n1 | – | – | 7 nM | 25 nM | – | – | – | > 1000 nM | > 1000 nM | Active | Active | Active
4 | COC[C@H](C)n1cnnc1-c1cccc(NC(=O)c2cn(C)nc2OC)n1 | 7 mL/min/kg | 44 µg/mL (≈ 118 µM) | 44 nM | 793 nM | 0.9 ×10⁻⁶ cm/s | 33 | 36 mL/min/kg | – | – | – | – | –
